Laboratory results from patent publication US7109329B2, “Neurologically active compounds and compounds with multiple activities” (priority 1988, dated 2006).
One block for each molecule: values may come before it.

Experiments:
[1] = Core temperature of treated rats in a room at minus 30° C.; assay type: in vivo, rat; details: four rats, 4 mg intraperitoneally, placed about 30 minutes after injection
Method: (room temperature). […] (plus or minus 0.5° C.). The core temperatures of the four treated rats, as well as that of two control rats who received only the dextrose solution, were continuously monitored.

[2] = Spinal cord trauma (500 g-cm weight drop at T4) in cats: urinary bladder function, micturition; assay type: in vivo, cat
Method: A cat was anesthetized using intravenous pentobarbital (30 mg/kg) after which its arterial blood pressure was continuously monitored for at least two hours. After recording stable arterial blood pressure, a dorsal laminectomy was performed in the thoracic region of the cat from T3 to T5; after restoration of blood pressure, the cat was traumatized by means of a twenty gram weight being dropped from a height of twenty-five centimeters (500 g-cm force) on the exposed dura of the spinal cord at the fourth thoracic segment.
Ten cats were spinally traumatized in accordance with the procedure set forth above in Comparative Example A. Five of these spinal cats were treated with Compound C commencing three hours after trauma and five of the cats were treated with guanabenz beginning at the same time.
Spinalized cats required eight weeks of treatment with guanabenz before regaining controlled micturition. Cats treated with Compound C, required only three to five weeks of treatment to achieve the same results.

[3] = Brain and core temperature of treated rats in a room at 4°–5°; assay type: in vivo, Sprague-Dawley rats; details: 12 mg/kg IP
Method: All sixteen rats were placed in a temperature-controlled room maintained at 4°–5° d. immediately after injection.

[4] = Spinal cord transection in rats: recovery of hind limb function and reflexes under treatment; assay type: in vivo, rat
Method: The spinal cord of a group of rats was completely transected. After surgery, the rats were treated with guanabenz.
The rats presented with a condition of bloody eyes and nose for a period of 2 to 5 days after the transection. During the first two-weeks, proper plantar placement, weight bearing on the hind limbs and/or coordinated walking was not present.
In a further group of six rats the spinal cord was transected in accordance with the above Comparative Examples. After surgery and cleaning and mechanical treatment of the wounds in the same fashion, an intraperitoneal injection of 7-(guanidino-acetyl-theophylline (“C”) was administered at a dose of 5.0 mg/kg 24 hours post surgery. Within a 7 to 9 day period, the rats engaged in walking movements of the hind limbs coordinated with those of the front limbs and the hind limbs, including proper plantar placement and full weight bearing on the hind limbs.
Within 36 hours after the spinal cord transection, i.e., only 12 hours after initial administration of Compound C, the initial bloody eyes and nose condition had abated. […] Further the animals were alert and continued to eat in substantially normal quantities.
Starting 24 hours post-transection, immediately after each intraperitoneal administration of Compound C, reflexes such as the tail-flick and cross-extension would return, within 12 minutes post injection. […] Within 8 to 11 days the response became sustained, and was accompanied by long-term therapeutic restoration of coordinated movements, plantar placements and weight-bearing by the hind limbs.

[5] = Electrical tail stimulation, vocalization threshold (anesthesia) in rats; assay type: in vivo, rat
Method: A fifth rat was treated with merely an equal amount of the dextrose solution without guanabenz acetate. The rats were subjected to an electrical tail stimulation, by electrodes attached to their tails, to determine the point of positive (threshold) vocalization.
The normal vocalization threshold, and the point at which the control rat vocalized was approximately 7 volts. […] To bring the rats out of anesthesia, the rats were then injected with 40 mgs. of aminophylline, also in 1 ml of a 5% aqueous dextrose solution. […] The normal threshold for vocalization was reestablished, as there was no vocalization at 6 volts following recovery from anesthesia.
The rats were maintained under anaesthesia for a period of 50 minutes before injection of the aminophylline.

[6] = Formation of scar tissue at the trauma site; assay type: in vivo
From the text: It is believed that these mixed agonists interfere with triple helix formation in the synthesis of collagen protein, thus preventing or reducing the formation of hard scar tissue at the trauma site.
The purpose of liquid nitrogen is to reduce the structural integrity of the collagen laden, glial scar tissue, by freezing and defrosting. Collagenase then initiates a debridgement of the scar without attacking the nervous and osseous tissue. If required, streptokinase, or alteplase, both plasminogen activators can also be used to bring about a complete debridgement. In addition to 3-amino-propionitrile (a latherogen), 5-fluorodeoxyuridine and dehydroproline can be used to arrest further glial and fibroblastic invasion of the scar region, respectively.

[7] = Method: Room temperature was 21.5° C.
The core temperatures of the rats were allowed to fall to approximately 30° C., after about 15 minutes. At that time, the rats were placed in a temperature controlled room maintained at 42° C., together with 2 control rats treated only with the dextrose solution.
The core temperatures of the rats were allowed to fall to approximately 30° C. At that time, the rats were placed in a temperature controlled room maintained at 42° C., together with two control rats treated only with the dextrose solution.

[8] = Intravenous anesthesia of a 70 kg mammal; assay type: in vivo
Method: Thereafter, an intravenous injection containing 20 mg of aminophylline is administered over a period of five minutes. The large mammal is fully awakened within about 20 minutes, appearing alert and refreshed.
The period of time required to fully reverse the anesthesia can be increased or decreased by proportionally changing the amount of the antagonist. After metabolism of guanabenz, the mammal will spontaneously awaken, within about three to six hours after the I.V. drip is discontinued.

[9] = Anesthesia in rats judged by reflexes and wakefulness
[10] = Blood pressure after administration, cat; assay type: in vivo
[11] = Blood pressure after administration, sheep; assay type: in vivo
[12] = Spasticity in previously untreated spinal cord transected rats (Working Example 2); assay type: in vivo, rat; details: 4.0 mg/kg BID intraperitoneally for 7 days
From the text: It was noted that some of the untreated rats in Comparative Example A developed severe spasticity three weeks after transection.

[13] = Treatment of spinal cord injured rats and cats with alpha-adrenoceptor agonists; assay type: in vivo
Method: The animals are treated with a guanidino compound, e.g., guanphylline or aminoguanphylline, twice daily (1 mg/kg). Approximately 10, 14 and 20 days after treatment with, e.g., guanphylline or aminoguanphylline is commenced, these animals can also be treated with a serotonergic (“5-HT”) receptor agonist; such as quipazine (1–2 mg/kg). Such serotonergic compounds can accelerate the recovery period, i.e., shorten the period after which time the animals become mobile. The animals should then continue to be treated systemically with the guanidino compound twice daily for six to eight weeks, or until functional recovery has been achieved.
Many rats and cats have been treated with several alpha-adrenoceptor agonists in order to ascertain which drug has the least side effects and reduces the time period for recovery.

[14] = Sprague-Dawley rats, 4 mg, tolazoline 4 mg intravenously about twenty minutes before
[15] = 4 mg I.P., room temperature 21.5° C.
[16] = 5.0 mg/kg intraperitoneal 24 hours post surgery

behavior after the experiment [3]: resume normal behavior
Structure (SMILES): N=C(N)N/N=C/c1c(Cl)cccc1Cl [guanabenz]
core temperature approximately 15 minutes after placement in the cold room [1]: ~16 °C
urinary bladder function at urodynamic examination ([2]; spinal cats, 0.65 mg/kg bid from three hours after trauma, guanabenz four to five weeks after treatment began, Compound C after seven to twenty-one days): tight urinary sphincter and dyssinergia
treatment required before regaining controlled micturition ([2]; spinalized cats): eight
core temperature lower than the brain temperature by ([3]; ultimately): 10 °C
mean brain temperature after 45 minutes ([3]; 8 rats, original mean 37° C.): 27 °C
muscle mass of hind limbs ([4]; spinal transected rats under I.P. treatment): some, but not significant loss of muscle mass
duration of sedation following each administration ([4]; spinal transected rats, 0.65 mg/kg I.P. twice per day from 72 hours after the lesion): 2 to 4 h
time of treatment until proper plantar placement, weight bearing on the hind limbs and coordinated walking movements ([4]; spinal transected rats, 0.65 mg/kg I.P. twice per day, majority of the rats): third week
duration of anesthesia without further administration [5, 14]: four
time until anesthetized [5, 14]: five
vocalization threshold on electrical tail stimulation (failed to vocalize) ([5]; rats 310–350 g, 4 mg intraperitoneally, beginning seven minutes after injection, normal threshold 7 volts): > 10 volts
vocalization threshold on electrical tail stimulation (no vocalization response) ([5]; rats, 4 mg intraperitoneally, thereafter (profoundly anesthetized)): > 40 Volts
effect on formation of the scar [6]: interfere with formation of the scar
mean intraperitoneal temperature [7, 15]: 31.5 °C
temperatures of the liver and the kidneys [7, 15]: about 33.5 °C
core temperature (colonic measurement) after drop ([7]; eight rats each, 4 mg I.P. in 5% dextrose, room temperature 21.5° C., normal value 36.5° C.): 22.5 °C
core temperature after drop ([7]; four rats, 4 mg intraperitoneally, room temperature 21° C., before cold room): 21 °C
total amount in the initial single dose for anesthetic and hypothermic effect ([8]; 60 to 75 kg mammal, intravenous injection): ≤ 0.5 mg/kg
reaction to noxious stimulation and corneal reflex ([8]; 70 kg mammal, 6 mg intravenous): does not overtly react to the noxious stimulation of pin-pricks
time after injection until profound anesthesia ([8]; 70 kg mammal, 6 mg intravenous over three minutes): five
additional duration of profound anesthesia after the drip ([8]; 70 kg mammal, drip 0.1 mg/ml at 1 ml/min for 30 minutes from about 120 minutes after the initial injection): about two
time to spontaneous awakening after the I.V. drip is discontinued ([8]; large mammal, after metabolism of guanabenz): three to six
anesthetic state of the treated rats [9, 15]: anesthetized
I.P. amount sufficient to initially place the rats in an anesthetized condition ([9]; laboratory rats, I.P.): 12 mg per kilogram of body weight

Structure (SMILES): Cn1c(=O)c2c(ncn2CC(=O)NC(=N)N)n(C)c1=O [C, Guanidino-7-Acetyltheophylline]
blood pressure immediately after administration [10]: slight increase
time until blood pressure returned to basal level [10]: ≤ 10 min
blood pressure immediately after administration [11]: slight increase
time until blood pressure returned to basal level [11]: ≤ 10 min
time after initial administration until bloody eyes and nose condition had abated [4, 16]: 12 h
time after spinal cord transection until bloody eyes and nose condition had abated [4, 16]: ≤ 36 h
time post injection until return of reflexes (tail-flick, cross-extension) ([4]; after each intraperitoneal administration, starting 24 hours post-transection): ≤ 12 min
period until walking movements of the hind limbs coordinated with the front limbs, proper plantar placement and full weight bearing ([4]; six spinal transected rats, 5.0 mg/kg intraperitoneal from 24 hours post surgery): 7 to 9 days
signs of sedation or lethargy during the course of treatment ([4]; spinal transected rats, 5.0 mg/kg intraperitoneal): did not exhibit any signs of sedation or lethargy
time until the response became sustained with long-term restoration of coordinated movements ([4]; spinal transected rats, intraperitoneal): 8 to 11 days
time until marked decrease in spasticity ([12]; three spastic control rats three weeks after transection): ≤ 4 days
time until complete elimination of spasticity ([12]; three spastic control rats): 7 days

Structure (SMILES): Cn1c(=O)c2c(ncn2C(=O)CNC(=N)N)n(C)c1=O [7-(guanidinoacetyl)-theophylline]
efficacy in treated rats and cats [13]: found efficacious
